Laboratory results from patent publication US20040132821A1, “Therapeutic combination of carnitine and antioxidant polyphenols” (priority 2002, published 2004).
Like-named read-outs stand apart in the source and are kept apart here.

What was measured:
rats = assay: Toxicological test, parenteral administration, rats; type: in vivo
From the text: (§1) Both carnitines and hydroxytyrosol are well known for their low toxicity and good tolerability. These favorable toxicological characteristics of carnitines and hydroxytyrosol have been confirmed.

mice = assay: Toxicological test, parenteral administration, mice; type: in vivo
From the text: as §1

[1] = humans, after ingestion; cited from earlier work
[2] = after consumption of a meal, hydroxytyrosol in olive oil; cited from earlier work
[3] = cited from earlier work

CC(=O)O[C@H](CC(=O)[O-])C[N+](C)(C)C [acetyl-L-carnitine, Acetyl-L-carnitine]
amount possible to administer parenterally (rats): up to 250 mg/kg
amount possible to administer parenterally (mice): up to 250 mg/kg

OCCc1ccc(O)c(O)c1 [hydroxytyrosol, Hydroxytyrosol]
preferential route of excretion [1]: glucuronide conjugates in urine
time of peak postprandial concentration [2]: 1 to 2 h
oral bioavailability ([3]; aqueous solution): 71%
oral bioavailability ([3]; olive oil solution): 99%
